Laboratory results reported in US12550894B2, “Insecticidal formulation for vector and pest control with increased contact efficacy” (priority 2018, dated 2026).

Key:
Assay in all cases: Long term contact efficacy against mosquitos (example 12)
Format in all cases: in vivo
Settings in all cases: glazed tiles, 1 day after treatment
[1] = test system: Culex quinque fasciatus
Excerpt: (§1) Glazed tiles have been treated with the WP 10 formulations as described in example 9 based on 4-[(5S)-5-(3,5-dichloro-4-fluorophenyl)-5-(trifluoromethyl)-4,5-dihydro-1,2-oxazol-3-yl]-N-[(4R)-2-ethyl-3-oxo-1,2-oxazolidin-4-yl]-2-methylbenzamide as described in Example 4 and then stored at ambient conditions. […] The contact bioassays have been conducted as outlined in example 9.

[2] = test system: Anopheles funestus
Excerpt: as §1

[3] = test system: Aedes Aegypti
Excerpt: as §1

## CCN1OC[C@@H](NC(=O)c2ccc(C3=NO[C@@](c4cc(Cl)c(F)c(Cl)c4)(C(F)(F)F)C3)cc2C)C1=O [Reference crystalline spray, 4-[(5S)-5-(3,5-dichloro-4-fluorophenyl)-5-(trifluoromethyl)-4,5-dihydro-1,2-oxazol-3-yl]-N-[(4R)-2-ethyl-3-oxo-1,2-oxazolidin-4-yl]-2-methylbenzamide]
[1]; 0.8 mg a.i./m^2
  Mortality [%] Culex quinque fasciatus 24 h: 25%
[1]; 4 mg a.i./m^2
  Mortality [%] Culex quinque fasciatus 24 h: 88%
[1]; 20 mg a.i./m^2
  Mortality [%] Culex quinque fasciatus 24 h: 100%
[2]; 0.8 mg a.i./m^2
  Mortality [%] Anopheles funestus 24 h: 0%
[2]; 4 mg a.i./m^2
  Mortality [%] Anopheles funestus 24 h: 30%
[2]; 20 mg a.i./m^2
  Mortality [%] Anopheles funestus 24 h: 90%
[3]; 0.8 mg a.i./m^2
  Mortality [%] Aedes Aegypti 24 h: 0%
[3]; 4 mg a.i./m^2
  Mortality [%] Aedes Aegypti 24 h: 89%
[3]; 20 mg a.i./m^2
  Mortality [%] Aedes Aegypti 24 h: 100%
